Results on three compounds are retold here after patent publication US20260355176A1 (NICOVENTURES TRADING LIMITED, priority 2019, published 2026).

Entries after “also recorded” stand apart in the source; their conditions may differ.

A short description of data set [1]: Nicotine and benzoic acid octanol-water partitioning in unbuffered water. It is filed as physicochemical.
Procedure: The mobile phase was brought to pH 2.5 with H3PO4. The flow rate of the mobile phase was 1 mL/min, and the injection volume was 10 μL.
Data set [2] in a line: Nicotine octanol-water partitioning with various ion pairing agents and quantities (benzoate, octanoate, decanoate). The note with it: pH 6.5, 1,000 ppm nicotine. It is filed as physicochemical. How it is done: A pH probe was submerged in the resulting liquid and HCl (0.05 M) was added under stirring to bring the solution to pH 6.5. The flask weight was then brought up to 100 grams with RO water. […] Partitioning was performed by removing aliquots (10 mL) of each solution and placing into separate 20 ml scintillation vials. Octanol (10 ml) was added to each vial. The vials were then placed on a wrist action shaker for 20 minutes. Following agitation, the vials were allowed to separate for 30 min, and an aliquot (100 μl) of each octanol layer was removed and diluted with 900 μl octanol in 2 mL GC/MS vials.

Take `O=C(O)c1ccccc1` [benzoic acid]: the concentration in octanol in data set [1] (1000 ppm nicotine, 1 molar equivalent sodium benzoate, unbuffered water) was 19.2 ppm. The “benzoic acid molarity in octanol in terms of nicotine mass” value in data set [1] (calculated as ppm nicotine) was 25.5 ppm. On to `CCCCCCCCCC(=O)O` [decanoic acid], for which the “octanol-water partitioning, in words” value in data set [2] is on record as “prone to becoming soapy during the vigorous mixing; also recorded: partition into octanol to an extent less than that expected by theory”. For `CN1CCCC1c1cccnc1` (centres unmarked) [nicotine, reference compound], the “% nicotine in octanol (FIG. 6)” value in data set [2] (10 eq. octanoic acid) was ~ 75%; in data set [2] (benzoic acid at same concentration (10 eq.)), ~ 52%.
